Results taken from patent US20040191297A1, “Carotenoid formulation” (priority 1997, published 2004).

Key:
[1] = Carotenoid content of Lycopene Suspension-supplemented diets after 7 months storage; type: physicochemical; details: for Carotenoid content of diet: stored at −20 °C for 7 months
Protocol: When the Lycopene Suspension (Henkel Corporation, La Grange, Ill.) was extracted by organic extraction methods, the major carotenoid was lycopene, but a number of other carotenoids were known to be present in tomatoes, α- and β-Carotene, phytofluene and phytoene were also present (FIGS. 6 & 7). The quantitative profile of carotenoids in the Lycopene Suspension was carried out using an HPLC system as described above, equipped with a photodiode array detector. The six major components can be seen in Table 7.
(Table 10). Note that all the major carotenoids plus the lycopene metabolite present in the Lycopene Suspension are present in the diets in the same relative proportions. However, the net loss of lycopene over 7 months was 66%, 38%, 40%, 44% and 60%, in treatment groups 1-5, respectively; in contrast, β-carotene concentrations declined by only 10% of original values over the same time period.

[2] = Lycopene content of rat mammary gland; type: in vivo, Fischer 344 rats; details: female
Text: homogenized. […] This hexane extraction procedure was repeated 5-7 times.

[3] = Dietary lycopene stability, AIN-76A diet at 4 °C in the dark; type: physicochemical; details: for % (diet concentration 744 μg/g as 100%) / Lycopene concentration: 4 °C dark; for Lycopene concentration: AIN-76A diet
Protocol: The stability of the lycopene suspension once incorporated into the diet was assessed in two ways. The first was by placing the diet containing the suspension at 4° C. in the dark for a period of 3 weeks (Table 8A,B).
(§1) At various time points, a diet sample was taken and lycopene was extracted as follows: Approximately 0.5 to 1.0 g of sample was added to a 15 ml volume of extraction solvent consisting of 40% acetonitrile, 20% hexane, 20% methanol and 20% methylenechloride. The mixture was sonicated for 2 minutes and allowed to stand for 5 minutes. The reddish-orange clear supernatant was then decanted. This process was repeated 4 times, at which time the supernatant was colorless. Solvent was then added to a volume of 25 to 100 ml, the mixture centrifuged, and the supernatant decanted. All supernatants were then mixed. The above solvent serves two purposes; first, it is the most efficient mixture for lycopene, and second, it is the same solvent used for injecting lycopene samples into the HPLC.

[4] = Ten-week MTD feeding study: weight gain and toxicity; type: in vivo
Protocol: Inbred Fischer F344 males (n=70) and females (n=70) were obtained from Taconic Farms, Germantown, N.Y. At about 35 days of age, all animals were transferred to the experimental room from quarantine. The animals were then allocated into experimental groups using formal randomization methods to ensure that each group contained animals of the same mean weight.
A ten-week pilot study was conducted as described in Table 2 & FIG. 2 to determine the maximal tolerated dose (MTD) for lycopene in both male (colon model) and female (breast model) rats. The choice of dose ranges was based on published values for β-carotene. A mixed carotenoid composition containing 5.7% carotenoids, including 3.7% pure lycopene was suspended in medium chain triglycerides (this composition will be referred to below as the “Lycopene Suspension”). The Lycopene Suspension was incorporated into the AIN-76A diet.
Differences in the lipid content of the various treatment groups were controlled by supplementing their diets with appropriate amounts of Neobee® medium chain triglyceride (Stepan Co., Maywood, N.J.) such that all animals, including controls, received the same amount of dietary fat.
Animal weights were recorded once per week and animal appearance (coat texture) and food avoidance behavior assessed. By concentration,
the maximal tolerated dose is that dose which […] mean body weight loss.

retinol = test: Liver vitamin A assay; type: in vivo, Fischer 344 rats; details: for Liver retinol: female
Text: The effect of the tomato carotenoid supplement on the absorption and storage of two important fat soluble vitamins, namely, retinol and α-tocopherol, was investigated. Using established HPLC methods, a strong liner dose-response relationship was found between the lycopene content of the liver and both retinol and a-tocopherol concentration in female R-344 rats (Table 23).

[5] = Preliminary feeding study, one male rat, 3 weeks; type: in vivo; details: 2.5 mM/kg diet
Protocol: One male rat was fed 2.5 mM lycopene (+other carotenoids)/kg diet for a period of 3 weeks. At this high dose, no change in body weight or food consumption was seen. […] The tail was brown. At necropsy, the liver was a deep red, as was the cecum and small intestine.

[6] = Stability of lycopene incorporated into AIN-76A diet at ambient temperature in food cup (air and light); type: physicochemical; details: for Concentration: ambient temperature
Protocol: as §1
The second was by exposing the lycopene-containing diet to air and light, as is the case in an actual feeding study. The stability of lycopene in the food cup where it is exposed to light and air is seen in Table 9.

## CC(C)=CCC/C(C)=C/C=C/C(C)=C/C=C/C(C)=C/C=C/C=C(C)/C=C/C=C(C)/C=C/C=C(\C)CCC=C(C)C [Lycopene]
[1]; Diet 1, 2.5 mM/kg diet
  Carotenoid content of diet: 472 μg/gm (ppm)
[1]; Diet 2, 1.0 mM/kg diet
  Carotenoid content of diet: 348 μg/gm (ppm)
[1]; Diet 3, 0.5 mM/kg diet
  Carotenoid content of diet: 168 μg/gm (ppm)
[1]; Diet 4, 0.25 mM/kg diet
  Carotenoid content of diet: 92 μg/gm (ppm)
[1]; Diet 5, 0.10 mM/kg diet
  Carotenoid content of diet: 22 μg/gm (ppm)
[1]; diet of treatment group 1, 7 months storage
  net loss over 7 months: 66%
[1]; diet of treatment group 2, 7 months storage
  net loss over 7 months: 38%
[1]; diet of treatment group 3, 7 months storage
  net loss over 7 months: 40%
[1]; diet of treatment group 4, 7 months storage
  net loss over 7 months: 44%
[1]; diet of treatment group 5, 7 months storage
  net loss over 7 months: 60%
[2]; Group 1 (1280 mg/kg diet)
  Lycopene content of mammary gland, Median: 235 ng/g
  Lycopene content of mammary gland, Range: 232 to 460 ng/g
  Lycopene content of mammary gland, mean ± SD: 309 ± 131 ng/g
[2]; Group 2 (512 mg/kg diet)
  Lycopene content of mammary gland, Median: 197 ng/g
  Lycopene content of mammary gland, Range: 172 to 231 ng/g
  Lycopene content of mammary gland, mean ± SD: 200 ± 030 ng/g
[2]; Group 3 (256 mg/kg diet)
  Lycopene content of mammary gland, Median: 220 ng/g
  Lycopene content of mammary gland, Range: 139 to 282 ng/g
  Lycopene content of mammary gland, mean ± SD: 215 ± 062 ng/g
[2]; Group 4 (128 mg/kg diet)
  Lycopene content of mammary gland, Median: 217 ng/g
  Lycopene content of mammary gland, Range: 181 to 288 ng/g
  Lycopene content of mammary gland, mean ± SD: 229 ± 054 ng/g
[2]; Group 5 (51 mg/kg diet)
  Lycopene content of mammary gland, Median: 143 ng/g
  Lycopene content of mammary gland, Range: 139 to 239 ng/g
  Lycopene content of mammary gland, mean ± SD: 174 ± 057 ng/g
[3]; 1 day
  % (diet concentration 744 μg/g as 100%): 101%
[3]; 8 days
  % (diet concentration 744 μg/g as 100%): 98%
[3]; 14 days
  % (diet concentration 744 μg/g as 100%): 90%
[3]; 21 days
  % (diet concentration 744 μg/g as 100%): 72%
[3]; 4 °C in the dark, 3 weeks
  amount remaining relative to day 1: about 72%
[3]; 4 °C in the dark, two weeks
  decomposition: about 10%
[3]; 21 days in the dark at 4 °C
  stability in the diet: stable
[3]; 1 day in refrigerator
  Lycopene concentration: 748 µg/g
[3]; 8 days in refrigerator
  Lycopene concentration: 728 µg/g
[3]; 14 days in refrigerator
  Lycopene concentration: 672 µg/g
[3]; 21 days in refrigerator
  Lycopene concentration: 534 µg/g
[4]; F-344 rat, dose range used
  toxicity: no evidence of lycopene toxicity
[4]; analysis of variance for repeated measures
  difference in weight gains between doses: no difference
[4]; end of 10 weeks
  weight gain difference, control vs supplemented rats: ≤ 10%
[4]; male and female rats, dosage range used
  effect on food intake or weight gain: no deleterious effect
retinol; female rats
  difference in liver retinol between controls and the highest lycopene dose: 10 fold
retinol; Group 1, lycopene 1280 mg/kg diet
  Liver retinol: 1302 μg/gm
retinol; Group 2, lycopene 512 mg/kg diet
  Liver retinol: 768 μg/gm
retinol; Group 3, lycopene 256 mg/kg diet
  Liver retinol: 858 μg/gm
retinol; Group 4, lycopene 128 mg/kg diet
  Liver retinol: 888 μg/gm
retinol; Group 5, lycopene 51 mg/kg diet
  Liver retinol: 555 μg/gm
[5]
  change in body weight or food consumption: no change
[6]; 7 days at ambient light and temperature
  stability in the diet: stable
[6]; AIN-76A diet, 0 days in food cup
  Concentration: 744 µg/g
[6]; 2 days in food cup
  Concentration: 702 µg/g
[6]; 3 days in food cup
  Concentration: 616 µg/g
[6]; 6 days in food cup
  Concentration: 547 µg/g
[6]; 7 days in food cup
  Concentration: 439 µg/g
[6]; 9 days in food cup
  Concentration: 624 µg/g
[6]; 10 days in food cup
  Concentration: 576 µg/g
[6]; 13 days in food cup
  Concentration: 449 µg/g
[6]; 14 days in food cup
  Concentration: 419 µg/g
[6]; 15 days in food cup
  Concentration: 425 µg/g
[6]; 17 days in food cup
  Concentration: 431 µg/g
[6]; 20 days in food cup
  Concentration: 385 µg/g
[6]; 21 days in food cup
  Concentration: 376 µg/g
[6]; food cup, air and light, 3 weeks
  original lycopene no longer measurable: one-half
[6]; food cup, air and light, 48-hour period
  lycopene lost: a small amount is lost
[6]; food cup, air and light, 72 hours
  total lycopene lost: approximately 20%
